Experimental data published in PubChem BioAssay AID2060503 (Molecular Pharmacology Branch, DTP, NCI, 2025).

System: 817829-284-R-J1-PDC complex spheroids, viability
Experiment: Anticancer human tumor 817829-284-R-J1-PDC patient-derived colon adenocarcinoma cell line growth inhibition [GQUAD]
Conditions: curve of first compound; second compound 10 µM
Summary of the method: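 Tumor cells were grown as complex spheroids with HUVEC endothelial cells and mesenchymal stem cells as stroma. G-quadruplex stabilizers were combined with targeted agents over half-log dilutions from near the clinical Cmax, or from 10 microM.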
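Note: spheroids exposed to agents for 7 days before readout.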
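Throughout, for viability, T/C: percent viability relative to DMSO vehicle control taken as 100%.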

| SMILES | IC50 [nM] |
| --- | --- |
| C=CCn1c(=O)c2cnc(Nc3ccc(N4CCN(C)CC4)cc3)nc2n1-c1cccc(C(C)(C)O)n1 + Cc1[nH]c2ccc(F)cc2c1-c1nc2c3cccnc3c3ncccc3c2[nH]1 | < 31.6 |
| CC(C)(O)C1CCC(Nc2ccc3ncc(-c4cccc(C(F)(F)F)c4)n3n2)CC1 (configuration not stated) + Cc1[nH]c2ccc(F)cc2c1-c1nc2c3cccnc3c3ncccc3c2[nH]1 | < 31.6 |
| Cc1[nH]c2ccccc2c1CCNCc1ccc(/C=C/C(=O)NO)cc1 + Cc1[nH]c2ccc(F)cc2c1-c1nc2c3cccnc3c3ncccc3c2[nH]1 | < 0.999 |
| Nc1ccn(C2OC(CO)C(O)C2(F)F)c(=O)n1 (configuration not stated) + Cc1[nH]c2ccc(F)cc2c1-c1nc2c3cccnc3c3ncccc3c2[nH]1 | < 31.6 |
| O=C(NO)c1cnc(N2CCN(S(=O)(=O)c3ccc4ccccc4c3)CC2)nc1 + Cc1[nH]c2ccc(F)cc2c1-c1nc2c3cccnc3c3ncccc3c2[nH]1 | < 31.6 |
| O=c1[nH]cc(F)c(=O)[nH]1 + Cc1[nH]c2ccc(F)cc2c1-c1nc2c3cccnc3c3ncccc3c2[nH]1 | 234 |

Same assay, conditions: second compound 0.0316 µM; first compound 0.000999 µM; stronger effect = lower value

| SMILES | viability, T/C [%] |
| --- | --- |
| Cc1[nH]c2ccccc2c1CCNCc1ccc(/C=C/C(=O)NO)cc1 + Cc1[nH]c2ccc(F)cc2c1-c1nc2c3cccnc3c3ncccc3c2[nH]1 | 89.7 |

Same assay, conditions: second compound 0.0316 µM; first compound 0.00316 µM; stronger effect = lower value

| SMILES | viability, T/C [%] |
| --- | --- |
| Cc1[nH]c2ccccc2c1CCNCc1ccc(/C=C/C(=O)NO)cc1 + Cc1[nH]c2ccc(F)cc2c1-c1nc2c3cccnc3c3ncccc3c2[nH]1 | 102 |

Same assay, conditions: second compound 0.0316 µM; first compound 0.00999 µM; stronger effect = lower value

| SMILES | viability, T/C [%] |
| --- | --- |
| Cc1[nH]c2ccccc2c1CCNCc1ccc(/C=C/C(=O)NO)cc1 + Cc1[nH]c2ccc(F)cc2c1-c1nc2c3cccnc3c3ncccc3c2[nH]1 | 121 |

Same assay, conditions: second compound 0.0316 µM; first compound 0.0316 µM; stronger effect = lower value

| SMILES | viability, T/C [%] |
| --- | --- |
| C#Cc1c(F)ccc2cc(O)cc(-c3ncc4c(N5CC6CCC(C5)N6)nc(OCC56CCCN5CC(F)C6)nc4c3F)c12 (configuration not stated) + Cc1[nH]c2ccc(F)cc2c1-c1nc2c3cccnc3c3ncccc3c2[nH]1 | 96.1 |
| C=CCn1c(=O)c2cnc(Nc3ccc(N4CCN(C)CC4)cc3)nc2n1-c1cccc(C(C)(C)O)n1 + Cc1[nH]c2ccc(F)cc2c1-c1nc2c3cccnc3c3ncccc3c2[nH]1 | 101 |
| CC(C)(O)C1CCC(Nc2ccc3ncc(-c4cccc(C(F)(F)F)c4)n3n2)CC1 (configuration not stated) + Cc1[nH]c2ccc(F)cc2c1-c1nc2c3cccnc3c3ncccc3c2[nH]1 | 109 |
| Cc1[nH]c2ccccc2c1CCNCc1ccc(/C=C/C(=O)NO)cc1 + Cc1[nH]c2ccc(F)cc2c1-c1nc2c3cccnc3c3ncccc3c2[nH]1 | 91.4 |
| Nc1ccn(C2OC(CO)C(O)C2(F)F)c(=O)n1 (configuration not stated) + Cc1[nH]c2ccc(F)cc2c1-c1nc2c3cccnc3c3ncccc3c2[nH]1 | 20.2 |
| O=C(NO)c1cnc(N2CCN(S(=O)(=O)c3ccc4ccccc4c3)CC2)nc1 + Cc1[nH]c2ccc(F)cc2c1-c1nc2c3cccnc3c3ncccc3c2[nH]1 | 97 |
| O=c1[nH]cc(F)c(=O)[nH]1 + Cc1[nH]c2ccc(F)cc2c1-c1nc2c3cccnc3c3ncccc3c2[nH]1 | 113 |

Same assay, conditions: second compound 0.0316 µM; first compound 0.0999 µM; stronger effect = lower value

| SMILES | viability, T/C [%] |
| --- | --- |
| Cc1[nH]c2ccccc2c1CCNCc1ccc(/C=C/C(=O)NO)cc1 + Cc1[nH]c2ccc(F)cc2c1-c1nc2c3cccnc3c3ncccc3c2[nH]1 | 4.1 |

Same assay, conditions: second compound 0.0316 µM; first compound 0.1 µM; stronger effect = lower value

| SMILES | viability, T/C [%] |
| --- | --- |
| C#Cc1c(F)ccc2cc(O)cc(-c3ncc4c(N5CC6CCC(C5)N6)nc(OCC56CCCN5CC(F)C6)nc4c3F)c12 (configuration not stated) + Cc1[nH]c2ccc(F)cc2c1-c1nc2c3cccnc3c3ncccc3c2[nH]1 | 95 |
| C=CCn1c(=O)c2cnc(Nc3ccc(N4CCN(C)CC4)cc3)nc2n1-c1cccc(C(C)(C)O)n1 + Cc1[nH]c2ccc(F)cc2c1-c1nc2c3cccnc3c3ncccc3c2[nH]1 | 92.9 |
| CC(C)(O)C1CCC(Nc2ccc3ncc(-c4cccc(C(F)(F)F)c4)n3n2)CC1 (configuration not stated) + Cc1[nH]c2ccc(F)cc2c1-c1nc2c3cccnc3c3ncccc3c2[nH]1 | 104 |
| Nc1ccn(C2OC(CO)C(O)C2(F)F)c(=O)n1 (configuration not stated) + Cc1[nH]c2ccc(F)cc2c1-c1nc2c3cccnc3c3ncccc3c2[nH]1 | 6.9 |
| O=C(NO)c1cnc(N2CCN(S(=O)(=O)c3ccc4ccccc4c3)CC2)nc1 + Cc1[nH]c2ccc(F)cc2c1-c1nc2c3cccnc3c3ncccc3c2[nH]1 | 88.9 |
| O=c1[nH]cc(F)c(=O)[nH]1 + Cc1[nH]c2ccc(F)cc2c1-c1nc2c3cccnc3c3ncccc3c2[nH]1 | 92.3 |

Same assay, conditions: second compound 0.0316 µM; first compound 0.316 µM; stronger effect = lower value

| SMILES | viability, T/C [%] |
| --- | --- |
| C#Cc1c(F)ccc2cc(O)cc(-c3ncc4c(N5CC6CCC(C5)N6)nc(OCC56CCCN5CC(F)C6)nc4c3F)c12 (configuration not stated) + Cc1[nH]c2ccc(F)cc2c1-c1nc2c3cccnc3c3ncccc3c2[nH]1 | 96.2 |
| C=CCn1c(=O)c2cnc(Nc3ccc(N4CCN(C)CC4)cc3)nc2n1-c1cccc(C(C)(C)O)n1 + Cc1[nH]c2ccc(F)cc2c1-c1nc2c3cccnc3c3ncccc3c2[nH]1 | 30.2 |
| CC(C)(O)C1CCC(Nc2ccc3ncc(-c4cccc(C(F)(F)F)c4)n3n2)CC1 (configuration not stated) + Cc1[nH]c2ccc(F)cc2c1-c1nc2c3cccnc3c3ncccc3c2[nH]1 | 88.8 |
| Cc1[nH]c2ccccc2c1CCNCc1ccc(/C=C/C(=O)NO)cc1 + Cc1[nH]c2ccc(F)cc2c1-c1nc2c3cccnc3c3ncccc3c2[nH]1 | 0.13 |
| Nc1ccn(C2OC(CO)C(O)C2(F)F)c(=O)n1 (configuration not stated) + Cc1[nH]c2ccc(F)cc2c1-c1nc2c3cccnc3c3ncccc3c2[nH]1 | 6.88 |
| O=C(NO)c1cnc(N2CCN(S(=O)(=O)c3ccc4ccccc4c3)CC2)nc1 + Cc1[nH]c2ccc(F)cc2c1-c1nc2c3cccnc3c3ncccc3c2[nH]1 | 0.76 |
| O=c1[nH]cc(F)c(=O)[nH]1 + Cc1[nH]c2ccc(F)cc2c1-c1nc2c3cccnc3c3ncccc3c2[nH]1 | 106 |

Same assay, conditions: second compound 0.0316 µM; first compound 1 µM; stronger effect = lower value

| SMILES | viability, T/C [%] |
| --- | --- |
| C#Cc1c(F)ccc2cc(O)cc(-c3ncc4c(N5CC6CCC(C5)N6)nc(OCC56CCCN5CC(F)C6)nc4c3F)c12 (configuration not stated) + Cc1[nH]c2ccc(F)cc2c1-c1nc2c3cccnc3c3ncccc3c2[nH]1 | 90.4 |
| C=CCn1c(=O)c2cnc(Nc3ccc(N4CCN(C)CC4)cc3)nc2n1-c1cccc(C(C)(C)O)n1 + Cc1[nH]c2ccc(F)cc2c1-c1nc2c3cccnc3c3ncccc3c2[nH]1 | 8.8 |
| CC(C)(O)C1CCC(Nc2ccc3ncc(-c4cccc(C(F)(F)F)c4)n3n2)CC1 (configuration not stated) + Cc1[nH]c2ccc(F)cc2c1-c1nc2c3cccnc3c3ncccc3c2[nH]1 | 64 |
| Nc1ccn(C2OC(CO)C(O)C2(F)F)c(=O)n1 (configuration not stated) + Cc1[nH]c2ccc(F)cc2c1-c1nc2c3cccnc3c3ncccc3c2[nH]1 | 6.74 |
| O=C(NO)c1cnc(N2CCN(S(=O)(=O)c3ccc4ccccc4c3)CC2)nc1 + Cc1[nH]c2ccc(F)cc2c1-c1nc2c3cccnc3c3ncccc3c2[nH]1 | 0.18 |
| O=c1[nH]cc(F)c(=O)[nH]1 + Cc1[nH]c2ccc(F)cc2c1-c1nc2c3cccnc3c3ncccc3c2[nH]1 | 58.9 |

Same assay, conditions: second compound 0.0316 µM; first compound 3.16 µM; stronger effect = lower value

| SMILES | viability, T/C [%] |
| --- | --- |
| C#Cc1c(F)ccc2cc(O)cc(-c3ncc4c(N5CC6CCC(C5)N6)nc(OCC56CCCN5CC(F)C6)nc4c3F)c12 (configuration not stated) + Cc1[nH]c2ccc(F)cc2c1-c1nc2c3cccnc3c3ncccc3c2[nH]1 | 98 |
